Experimental data reported in patent US20070213272A1, “Transmucosal Administration Agent Containing Pth” (priority 2004, published 2007).
Values joined by “and” are separate entries in the source; they are usually repeats but may differ in a detail not shown here. Equal values may be shown once.

What was measured:
[1] = tested on: patients with primary osteoporosis; assay: Safety evaluation: adverse events and side effects in transnasal clinical study; format: in vivo, human
Experimental: […] Here, hPTH1-34 transnasal administration formulation was produced by the method in Example 2 of International Patent Publication No. WO02/02136. Using a nebulizer VP-7 (Valois) which uniformly sprays 100 μL of the drug solution by pumping once, one pumping for each nasal cavity, the total of 200 μL of the drug solution was sprayed daily. […] A single dose containing each amount of hPTH(1-34) was administered once a day on consecutive days of 12 weeks, and effectiveness and safety of each amount was confirmed. Safety evaluation: the occurrence number of adverse events was counted and evaluated. In counting adverse and other events, coding to preferred terms (PT) and classification of adverse event names into system organ classes (SOC) were conducted based on “MedDRA Version6.1”.

[2] = PTH(1-34) level in plasma after caudal vein and subcutaneous administration (pharmacokinetics); format: in vivo, rat
Experimental: Changes of PTH(1-34) level in plasma by caudal vein administration (iv) and subcutaneous administration (sc) were examined. hPTH(1-34) was diluted with phosphate buffer solution (PBS)/0.05% Tween 80 and adjusted to 10 nmol/ml. Female SD-IGS rats at 8 weeks of age (Charles River Japan, Inc.) were used for the experiment. A single dose administration was carried out by caudal vein administration and subcutaneous administration, and blood was collected from tail vein using a capillary tube for blood collection in a time-dependent manner (at pre-administration, 2.5, 5, 7.5, 10, 15, 30, 60, 90, 120 min.). After EDTA plasma was isolated, the collected blood samples were stored at -80° C. until the hPTH(1-34) level was measured. The PTH(1-34) level was measured by ELISA method using PTH(1-34) (human)-EIA kit (Peninsula Laboratories).

[3] = tested on: patients; conditions: subcutaneous administration, Neer et al. 2001; cited from earlier work
[4] = transnasal, all dose groups, 97 subjects for safety evaluation
[5] = rat, iv (caudal vein) single dose, 10 nmol/ml solution, female SD-IGS rats, plasma
[6] = rat, sc single dose, 10 nmol/ml solution, female SD-IGS rats, plasma

CC[C@H](C)[C@H](NC(=O)[C@H](CCC(=O)O)NC(=O)[C@H](CO)NC(=O)[C@@H](NC(=O)[C@@H](N)CO)C(C)C)C(=O)N[C@@H](CCC(N)=O)C(=O)N[C@@H](CC(C)C)C(=O)N[C@@H](CCSC)C(=O)N[C@@H](Cc1cnc[nH]1)C(=O)N[C@@H](CC(N)=O)C(=O)N[C@@H](CC(C)C)C(=O)NCC(=O)N[C@@H](CCCCN)C(=O)N[C@@H](Cc1cnc[nH]1)C(=O)N[C@@H](CC(C)C)C(=O)N[C@@H](CC(N)=O)C(=O)N[C@@H](CO)C(=O)N[C@@H](CCSC)C(=O)N[C@@H](CCC(=O)O)C(=O)N[C@@H](CCCN=C(N)N)C(=O)N[C@H](C(=O)N[C@@H](CCC(=O)O)C(=O)N[C@@H](Cc1c[nH]c2ccccc12)C(=O)N[C@@H](CC(C)C)C(=O)N[C@@H](CCCN=C(N)N)C(=O)N[C@@H](CCCCN)C(=O)N[C@@H](CCCCN)C(=O)N[C@@H](CC(C)C)C(=O)N[C@@H](CCC(N)=O)C(=O)N[C@@H](CC(=O)O)C(=O)N[C@H](C(=O)N[C@@H](Cc1cnc[nH]1)C(=O)N[C@@H](CC(N)=O)C(=O)N[C@@H](Cc1ccccc1)C(=O)O)C(C)C)C(C)C [hPTH(1-34)]
number of adverse events ([1]; transnasal, 250-μg group): 46 events | number of side effect events ([1]; transnasal, 250-μg group): 12 events | subjects with adverse events ([1]; transnasal, 250-μg group): 71.0% | subjects with side effects ([1]; transnasal, 250-μg group): 22.6% | number of adverse events ([1]; transnasal, 500-μg group): 51 events | number of side effect events ([1]; transnasal, 500-μg group): 10 events | subjects with adverse events ([1]; transnasal, 500-μg group): 76.7% | subjects with side effects ([1]; transnasal, 500-μg group): 26.7% | number of adverse events ([1]; transnasal, 1,000-μg group): 48 events | number of side effect events ([1]; transnasal, 1,000-μg group): 13 events | subjects with adverse events ([1]; transnasal, 1,000-μg group): 69.0% | subjects with side effects ([1]; transnasal, 1,000-μg group): 24.1% | number of adverse events ([1]; transnasal, 1,500-μg group): 10 events | number of side effect events ([1]; transnasal, 1,500-μg group): 2 events | subjects with adverse events ([1]; transnasal, 1,500-μg group): 71.4% | subjects with side effects ([1]; transnasal, 1,500-μg group): 28.6% | frequency of leg cramps ([1]; transnasal, all dose groups): no observation and 0% | frequency of nausea ([1]; transnasal, all dose groups): no observation and 0% | number of side effect events ([1]; transnasal, all dose groups): 37 events | occurrence rate of clinical examination (SOC) ([1]; transnasal, all dose groups): 19.6% | occurrence rate of dizziness ([1]; transnasal, all dose groups): 4.1% | occurrence rate of headache ([1]; transnasal, all dose groups): 7.2% | occurrence rate of heat failure (SOC) ([1]; transnasal, all dose groups): 21.6% | occurrence rate of infectious disease and parasitic disease (SOC) ([1]; transnasal, all dose groups): 18.6% | occurrence rate of nasopharyngitis (PT) ([1]; transnasal, all dose groups): 14.4% | occurrence rate of supraventricular premature beat (PT) ([1]; transnasal, all dose groups): 12.4% | occurrence rate of ventricular premature beat (PT) ([1]; transnasal, all dose groups): 5.2% | side effect events with the occurrence rate of 5% or more ([1]; transnasal, all dose groups): no event | subjects with side effects ([1]; transnasal, all dose groups): 24.7% | number of adverse events [1, 4]: 155 events | subjects with adverse events [1, 4]: 72.2% | PK profile of iv administration compared with sc administration ([2]; iv versus sc single dose, rats): more pulse-like PK | AUC [2, 5]: 17.8 ng·h/mL | half-life [2, 5]: 6.9 min | AUC [2, 6]: 3.83 ng·h/mL | Cmax [2, 6]: 9 ng/mL | Tmax [2, 6]: 20 min | half-life [2, 6]: 10.8 min | frequency of dizziness [3]: 9% | frequency of headache [3]: 13% | frequency of leg cramps [3]: 3% | frequency of nausea [3]: 18%
